Results taken from the NIST ThermoML archive (doi:10.1016/j.jct.2009.11.014).

Conditions: Liquid; for mass density: vibrating tube; for viscosity: Stony Brook Scientific falling needle HPHTV-100 viscometer

CCCCn1cc[n+](C)c1.F[B-](F)(F)F [1-butyl-3-methylimidazolium tetrafluoroborate]
Conditions	mass density [kg/m3]	viscosity [mPa·s]
283.15 K, 100 kPa	1212.53	–
283.15 K, 2000 kPa	1213.37	–
283.15 K, 4000 kPa	1214.24	–
283.15 K, 6000 kPa	1215.13	–
283.15 K, 8000 kPa	1216	–
283.15 K, 10000 kPa	1216.89	–
283.15 K, 12000 kPa	1217.77	–
283.15 K, 14000 kPa	1218.63	–
283.15 K, 20000 kPa	1221.2	–
283.15 K, 30000 kPa	1225.42	–
283.15 K, 40000 kPa	1229.49	–
283.15 K, 50000 kPa	1233.46	–
283.15 K, 60000 kPa	1237.32	–
285.05 K, 110 kPa	–	197.8
285.05 K, 14190 kPa	–	236.6
285.15 K, 110 kPa	–	197.5
285.15 K, 660 kPa	–	197.8
285.15 K, 1660 kPa	–	200.2
285.15 K, 2660 kPa	–	202.7
285.15 K, 4070 kPa	–	206.4
285.15 K, 6100 kPa	–	211
285.15 K, 8180 kPa	–	215.4
285.15 K, 10150 kPa	–	220.7
285.15 K, 12050 kPa	–	226.1
288.15 K, 100 kPa	1208.87	–
288.15 K, 2000 kPa	1209.73	–
288.15 K, 4000 kPa	1210.65	–
288.15 K, 6000 kPa	1211.56	–
288.15 K, 8000 kPa	1212.45	–
288.15 K, 10000 kPa	1213.34	–
288.15 K, 12000 kPa	1214.22	–
288.15 K, 14000 kPa	1215.09	–
288.15 K, 20000 kPa	1217.71	–
288.15 K, 30000 kPa	1221.96	–
288.15 K, 40000 kPa	1226.06	–
288.15 K, 50000 kPa	1230.05	–
288.15 K, 60000 kPa	1233.94	–
293.15 K, 100 kPa	1205.25	–
293.15 K, 2000 kPa	1206.11	–
293.15 K, 4000 kPa	1207.04	–
293.15 K, 6000 kPa	1207.96	–
293.15 K, 8000 kPa	1208.85	–
293.15 K, 10000 kPa	1209.74	–
293.15 K, 12000 kPa	1210.69	–
293.15 K, 14000 kPa	1211.59	–
293.15 K, 20000 kPa	1214.19	–
293.15 K, 30000 kPa	1218.46	–
293.15 K, 40000 kPa	1222.59	–
293.15 K, 50000 kPa	1226.61	–
293.15 K, 60000 kPa	1230.53	–
293.85 K, 120 kPa	–	125.5
293.85 K, 710 kPa	–	126.4
293.85 K, 1690 kPa	–	127.1
293.85 K, 2640 kPa	–	128.5
293.85 K, 4150 kPa	–	130.9
293.85 K, 6130 kPa	–	132.7
293.85 K, 8200 kPa	–	134.9
293.85 K, 10200 kPa	–	137.4
293.85 K, 12000 kPa	–	142.1
293.85 K, 12230 kPa	–	143.2
293.85 K, 14330 kPa	–	146.1
293.85 K, 14700 kPa	–	146
298.15 K, 100 kPa	1201.64	–
298.15 K, 2000 kPa	1202.53	–
298.15 K, 4000 kPa	1203.45	–
298.15 K, 6000 kPa	1204.39	–
298.15 K, 8000 kPa	1205.3	–
298.15 K, 10000 kPa	1206.22	–
298.15 K, 12000 kPa	1207.12	–
298.15 K, 14000 kPa	1208	–
298.15 K, 20000 kPa	1210.64	–
298.15 K, 30000 kPa	1214.97	–
298.15 K, 40000 kPa	1219.15	–
298.15 K, 50000 kPa	1223.24	–
298.15 K, 60000 kPa	1227.21	–
303.15 K, 100 kPa	1198.09	–
303.15 K, 120 kPa	–	78.1
303.15 K, 770 kPa	–	80
303.15 K, 1680 kPa	–	82.4
303.15 K, 2000 kPa	1198.98	–
303.15 K, 2700 kPa	–	83.3
303.15 K, 4000 kPa	1199.92	–
303.15 K, 4170 kPa	–	84.4
303.15 K, 6000 kPa	1200.85	–
303.15 K, 6240 kPa	–	85.1
303.15 K, 6290 kPa	–	85
303.15 K, 8000 kPa	1201.78	–
303.15 K, 8180 kPa	–	88.3
303.15 K, 10000 kPa	1202.7	–
303.15 K, 10200 kPa	–	89.8
303.15 K, 12000 kPa	1203.62	–
303.15 K, 12110 kPa	–	91
303.15 K, 14000 kPa	1204.52	–
303.15 K, 14200 kPa	–	92.5
303.15 K, 14290 kPa	–	91.7
303.15 K, 20000 kPa	1207.18	–
303.15 K, 30000 kPa	1211.54	–
303.15 K, 40000 kPa	1215.79	–
303.15 K, 50000 kPa	1219.9	–
303.15 K, 60000 kPa	1223.89	–
308.15 K, 100 kPa	1194.52	–
308.15 K, 2000 kPa	1195.44	–
308.15 K, 4000 kPa	1196.38	–
308.15 K, 6000 kPa	1197.34	–
308.15 K, 8000 kPa	1198.26	–
308.15 K, 10000 kPa	1199.2	–
308.15 K, 12000 kPa	1200.1	–
308.15 K, 14000 kPa	1201.03	–
308.15 K, 20000 kPa	1203.74	–
308.15 K, 30000 kPa	1208.15	–
308.15 K, 40000 kPa	1212.4	–
308.15 K, 50000 kPa	1216.54	–
308.15 K, 60000 kPa	1220.57	–
313.15 K, 100 kPa	1191.01	–
313.15 K, 2000 kPa	1191.92	–
313.15 K, 4000 kPa	1192.9	–
313.15 K, 6000 kPa	1193.86	–
313.15 K, 8000 kPa	1194.8	–
313.15 K, 10000 kPa	1195.75	–
313.15 K, 12000 kPa	1196.67	–
313.15 K, 14000 kPa	1197.1	–
313.15 K, 20000 kPa	1200.34	–
313.15 K, 30000 kPa	1204.81	–
313.15 K, 40000 kPa	1209.11	–
313.15 K, 50000 kPa	1213.28	–
313.15 K, 60000 kPa	1217.34	–
313.45 K, 14310 kPa	–	59.4
313.55 K, 120 kPa	–	51.2
313.55 K, 710 kPa	–	51.7
313.55 K, 1650 kPa	–	52.3
313.55 K, 2690 kPa	–	52.5
313.55 K, 4250 kPa	–	53.4
313.55 K, 6260 kPa	–	54.3
313.55 K, 8200 kPa	–	54.9
313.55 K, 10200 kPa	–	56.2
318.15 K, 100 kPa	1187.48	–
318.15 K, 2000 kPa	1188.43	–
318.15 K, 4000 kPa	1189.42	–
318.15 K, 6000 kPa	1190.39	–
318.15 K, 8000 kPa	1191.39	–
318.15 K, 10000 kPa	1192.31	–
318.15 K, 12000 kPa	1193.27	–
318.15 K, 14000 kPa	1194.22	–
318.15 K, 20000 kPa	1196.98	–
318.15 K, 30000 kPa	1201.46	–
318.15 K, 40000 kPa	1205.83	–
318.15 K, 50000 kPa	1210.05	–
318.15 K, 60000 kPa	1214.15	–
323.15 K, 100 kPa	1184	–
323.15 K, 2000 kPa	1184.97	–
323.15 K, 4000 kPa	1185.97	–
323.15 K, 6000 kPa	1186.94	–
323.15 K, 8000 kPa	1187.91	–
323.15 K, 10000 kPa	1188.88	–
323.15 K, 12000 kPa	1189.84	–
323.15 K, 14000 kPa	1190.78	–
323.15 K, 20000 kPa	1193.6	–
323.15 K, 30000 kPa	1198.15	–
323.15 K, 40000 kPa	1202.55	–
323.15 K, 50000 kPa	1206.8	–
323.15 K, 60000 kPa	1210.94	–
324.8 K, 630 kPa	–	34.5
324.82 K, 120 kPa	–	34.3
324.85 K, 1700 kPa	–	34.8
324.85 K, 2590 kPa	–	35.2
324.85 K, 4050 kPa	–	35.3
324.85 K, 4260 kPa	–	35.8
324.85 K, 6160 kPa	–	36.5
324.85 K, 8160 kPa	–	36.7
324.85 K, 10450 kPa	–	37.5
324.85 K, 12130 kPa	–	38.4
324.85 K, 14150 kPa	–	39
